Results taken from patent US9776983B2, “Method for manufacturing fluoropolymers” (SOLVAY SOLEXIS S.p.A., priority 2008, dated 2017).
Several values for one entry are separate records, joined by “and”; a condition that tells them apart may be missing. Equal values may be shown once.

Columns and labels:
pKa of acid (D) = type: physicochemical; details: free acid (D)
Method: An aqueous solution composed of KMnO4 (238 mmol, 37.6 g), NaOH (238 mmol, 9.52 g) in 200 ml of distilled H2O was introduced in a 3-necked glass round-bottomed flask equipped with a magnetic stirrer, a dropping funnel, a thermometer and a tap water refrigerating column. The flask was heated to 80° C. with vigorous stirring and then 238 mmol; 50 g of product obtained from step 1a was slowly dropped into the basic oxidizing solution. Immediate exothermic release (+15° C.) was observed together with formation of MnO2 precipitate. After completion of the addition, solution was further stirred at 80° C. for 40 min. Crude reaction mixture was then cooled to room temperature, filtered, acidified to pH=1 with concentrated HCl (37% w/w) and extracted several times with CH2Cl2. The organic layer was dried over MgSO4, filtered and then the CH2Cl2 is evaporated.

[1] = Plasma levels and pharmacokinetic parameters after single oral (gavage) administration; type: in vivo, male Wistar (SPF-bred) rats; details: for elimination from blood compared with APFO: after single oral administration, C/Cmax versus time (FIG. 5); for time of maximal plasma concentration (tmax): single oral, Va, VIIa about 70 μmol/kg, XIII 73 umol/kg
Method: (§1) Compound Va and VIIa (Xa═NH4) were administered by single oral route (gavage) three male Wistar (SPF-bred) rats at dose levels of about 70 μmol/kg of dry ammonium salt, corresponding to the 21.2 mg/kg for compound Va and 19.9 mg/kg for compound VIIa. Blood sampling occurred 15 minutes before administration, at 4, 8, 12, 24, 72 and 168 hours after administration.
(§2) Compound XIII was dosed by single oral administration to 3 male Wistar rats at the dose of 73 umol/kg corresponding to 26.06 mg/kg. Blood sampling occurred at 15 minutes before administration, at 4, 8, 12, 24, 72 and 168 hours after administration. Urine samples were obtained at time intervals 0-12, 12-24, 24-72, 72-96, 96-168 hours after dosing. Plasma and urine concentration of XIII were determined by a validated analytical method.
Results of plasma concentrations for compound VIIa (Xa═NH4), Va (Xa═NH4), XIII (Xa═NH4) and APFO as a function of time are sketched in FIG. 5. This graph depicts ratio C/Cmax for compound Va (Xa═NH4) (●) compound VIIa (Xa═NH4) (◯), for compound XIII (Xa═NH4) (□) and APFO (▴), with C=instantaneous plasma concentration and Cmax=maximum plasma concentration, as a function of time (in hours).

[2] = Thermogravimetric analysis (TGA) in air; type: physicochemical; details: ammonium salt
Method: (§3) An organic solution composed of (D) (127 mmol; 30.6 g) and 200 ml of CH2Cl2 was introduced in a 2-necked glass round-bottomed flask equipped with a magnetic stirrer, a tap water refrigerating column and a bubbling tube. The mixture was cooled to 0° C. with vigorous stirring and a large excess of gaseous NH3 was bubbled through the organic mixture. Bubbling of NH3 (g) was pursued until completion of the precipitation of the ammonium salt. Crude mixture was filtered; solid was dried in a vacuum oven at 40° C. under reduced pressure (20 mmHg) for 2 hours. A flaky white solid is obtained. Isolated yield of compound (E) (VIIa, with Xa being NH4)=100%. […] FIG. 2 depicts the ^19F-NMR spectrum of compound (E).
Perfluorinated ester (G) was hydrolyzed in water at 0° C., yielding corresponding acid with quantitative yield. Evolved HF was neutralized with 1.5 mol eq. of KF, yielding solid KHF2, which was separated by filtration. After removal of solvent, the free acid (b.p.=160° C.) and CF3COOH (b.p.=72° C.) were separated by fractional distillation. Gaseous NH3 was then bubbled in a CH2Cl2 (200 ml) solution of the acid; ammonium salt (H) (formula Va, with Xa═NH4) was then recovered with a yield of 75% moles (with respect to alcohol intermediate (B)). […] FIG. 3 depicts the ^19F-NMR spectrum recorded on compound (H).
Acid (XIII, Xa═H) was solubilised in CH2Cl2 (200 ml); gaseous NH3 was then bubbled in said solution; ammonium salt (XIII, Xa═NH4) was then recovered with a yield of 75% moles (with respect to alcohol intermediate (L)). […] FIG. 7 depicts the ^19F-NMR spectrum recorded on ammonium salt (XIII, Xa═NH4).

[3] = Urine levels and urinary recovery after single oral administration; type: in vivo, male Wistar rats
Method: as §1, §2

Oral acute toxicity = type: in vivo
Method: as §3

[4] = plasma, male rats, single oral gavage, about 70 μmol/kg, individual values of the three animals, listed as VIIa (Xa = NH4)

O=C(O)C1(F)OC(F)(F)OC1OC(F)(F)F (stereo not shown) [(D)]
pKa (pKa of acid (D)): 2.8

N.O=C(O)C1(F)OC(F)(F)OC1OC(F)(F)F (stereo not shown) [Compound VIIa]
elimination from blood compared with APFO [1]: significantly faster elimination | tmax ([1]; plasma, male rats, single oral gavage, about 70 μmol/kg, individual values of the three animals): 4, 4, 4 h | AUC0-t [1, 4]: 135.608 µg·h/mL and 47.07 µg·h/mL and 114.562 µg·h/mL | AUCinf. [1, 4]: 47.137 µg·h/mL and 115.916 µg·h/mL and 137.788 µg·h/mL | Cmax [1, 4]: 11258 ng/mL and 14767 ng/mL and 18878 ng/mL | t1/2, z [1, 4]: 4.8 h and 8.0 h and 8.9 h | reliable plasma half life ([1]; single oral gavage, about 70 μmol/kg, male Wistar rats): 8.0 to 8.9 h | time of maximal plasma concentration (tmax) ([1]; male Wistar rats): 4 h | TGA temperature at weight decrease of 10% [2]: 148 °C | TGA temperature at weight decrease of 50% [2]: 182 °C | urinary recovery at 168 hours after treatment ([3]; rats, single oral administration): 97-107% | urinary half lives ([3]; rats, single oral administration, individual values): 9 h and 13 h and 10 h | LD50 (Oral acute toxicity): exceed 2000 mg/kg

N.O=C(O)C(F)(F)OC1(F)OC(F)(F)OC1(F)OC(F)(F)F (stereo not shown) [Compound XIII]
elimination from blood compared with APFO [1]: significantly faster elimination | time of maximal plasma concentration (tmax) ([1]; male Wistar rats): 4 h | TGA temperature at weight decrease of 10% [2]: 159 °C | TGA temperature at weight decrease of 50% [2]: 191 °C | mean urinary recovery in 168 hours after treatment ([3]; 3 male Wistar rats, single oral, 73 umol/kg (26.06 mg/kg)): around 82%
